What was measured:
[1] = biological target: T1, NIH/3T3 cells overexpressing FGFR3 WT-TACC3 fusion protein (Homo sapiens, UniProt P22607); assay: NIH/3T3 FGFR3 WT-TACC3 cell proliferation assay; type: cell-based; conditions: 72-hr incubation, CellTiter Glo; read-out: NIH/3T3 FGFR3 WT-TACC3 CTG
T1 construct: NIH/3T3 FGFR3 WT-TACC3 CTG; other: 72-hr incubation, CellTiter Glo; fused on or other part: C-terminal part of TACC3 (coiled-coil) fused behind the FGFR3 kinase domain; Q9Y6A5 (Transforming acidic coiled-coil-containing protein 3)
T1 sequence (P22607 whole entry, change not shown, the tested form may be a part): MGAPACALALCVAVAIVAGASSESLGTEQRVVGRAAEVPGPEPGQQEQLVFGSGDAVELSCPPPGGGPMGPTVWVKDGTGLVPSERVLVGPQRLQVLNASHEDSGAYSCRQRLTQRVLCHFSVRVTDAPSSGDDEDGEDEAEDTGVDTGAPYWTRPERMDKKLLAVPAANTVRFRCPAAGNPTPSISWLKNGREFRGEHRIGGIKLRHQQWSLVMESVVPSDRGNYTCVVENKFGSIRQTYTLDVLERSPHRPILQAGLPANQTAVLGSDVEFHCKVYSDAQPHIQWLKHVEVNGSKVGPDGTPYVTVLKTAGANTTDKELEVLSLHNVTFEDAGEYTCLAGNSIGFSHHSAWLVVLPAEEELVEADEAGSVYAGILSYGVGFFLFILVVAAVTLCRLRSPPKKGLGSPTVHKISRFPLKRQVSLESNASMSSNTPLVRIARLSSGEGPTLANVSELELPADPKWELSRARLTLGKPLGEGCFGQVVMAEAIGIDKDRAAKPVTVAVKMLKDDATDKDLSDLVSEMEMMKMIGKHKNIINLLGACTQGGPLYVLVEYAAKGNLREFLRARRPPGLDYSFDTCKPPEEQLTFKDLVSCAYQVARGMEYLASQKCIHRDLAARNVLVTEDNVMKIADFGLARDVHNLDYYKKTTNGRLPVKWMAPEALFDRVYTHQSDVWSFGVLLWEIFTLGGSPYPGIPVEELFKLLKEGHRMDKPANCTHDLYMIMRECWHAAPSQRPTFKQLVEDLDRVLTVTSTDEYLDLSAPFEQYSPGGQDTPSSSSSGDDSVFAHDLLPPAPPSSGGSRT
Description: NIH/3T3 FGFR3 WT-TACC3 Cell Proliferation Assay
(§1) In day 1, 90 μL of cell suspension (NIH/3T3 cells overexpressing FGFR3 WT-TACC3 fusion protein) (total 30,000 cells per well in growth medium (DMEM containing 1% Glutamax, 10% FBS and 1% Pen/Strep)) was seeded in a 96-well plate and then incubated overnight at 37° C. and 5% CO2. In day 2, 10 μL of growth medium containing 10-fold stock solution of testing compound was added into cell cultures (9 dose points with 4× serial dilution, starting with 10 μM, 0.1% DMSO final). After 72-hr incubation at 37° C. and 5% CO2, in day 5 a volume of 50 μL CellTiter Glo (CTG) reagent was added into cell-containing 96-well plate and the plate was incubated at room temperature for 10 minutes before RLUs (relative light unit) were measured on a microplate reader with luminescence detection module. The RLU value was normalized to survival % and concentration-response curve was plotted using Prism to calculate IC50 (M), pIC50 (−log IC50) and HillSlope value.

[2] = biological target: T2, human FGFR3 V555M enzyme (cytoplasmic domain carrying V555M mutation) (Homo sapiens, UniProt P22607, V555M); assay: FGFR3 V555M mobility shift assay (enzymatic assay); type: biochemical; conditions: 30 μM ATP, 45 minutes at 30° C.; read-out: FGFR3 V555M Caliper
T2 construct: cytoplasmic domain carrying V555M mutation, from Cama Biosciences; purchased Cama Biosciences (so in the source)
T2 sequence (P22607 397-806 V555M limits assumed): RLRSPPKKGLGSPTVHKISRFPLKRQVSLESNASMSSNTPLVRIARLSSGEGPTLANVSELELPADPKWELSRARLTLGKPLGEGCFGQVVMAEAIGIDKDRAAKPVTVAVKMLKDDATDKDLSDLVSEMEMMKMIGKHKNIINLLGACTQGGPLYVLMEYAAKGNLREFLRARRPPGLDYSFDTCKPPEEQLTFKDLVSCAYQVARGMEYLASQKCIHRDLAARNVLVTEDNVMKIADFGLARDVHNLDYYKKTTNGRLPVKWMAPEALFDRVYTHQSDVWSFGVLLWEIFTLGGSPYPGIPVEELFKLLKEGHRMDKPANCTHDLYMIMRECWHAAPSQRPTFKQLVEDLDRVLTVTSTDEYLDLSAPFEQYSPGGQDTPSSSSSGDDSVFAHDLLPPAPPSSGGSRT
Description: FGFR3 V555M Mobility Shift Assay (Enzymatic Assay)
(§2) In a final reaction volume of 25 μL, 0.04 ng/μL human FGFR3 V555M enzyme (cytoplasmic domain carrying V555M mutation, from Cama Biosciences) was incubated with 30 μM ATP, 1 μM FL-peptide 30 substrate and 250 nL of testing compound (1% DMSO final) in assay buffer (100 mM HEPES pH 7.4, 10 mM MgCl2, 0.003% Brij35, 1 mM DTT). After incubation for 45 minutes at 30° C. the reaction was stopped with 10 μL of 0.5M EDTA pH 8.0, and then 25 μL of reaction mixture was transferred to reading plate and measured on Caliper EZ reader II. The substrate-product conversion rate was used as raw data for normalization and concentration-response curve (10 dose points with 4× serial dilution, starting with 10 μM) was plotted using Prism to calculate IC50 (M), pIC50 (−log IC50) and HillSlope value.

[3] = biological target: T3, NIH/3T3 cells overexpressing FGFR3 V555M-TACC3 fusion protein (Homo sapiens, UniProt P22607, V555M, cells depend on it); assay: NIH/3T3 FGFR3 V555M-TACC3 cell proliferation assay; type: cell-based; conditions: 72-hr incubation, CellTiter Glo; read-out: NIH/3T3 FGFR3 V555M-TACC3 CTG
T3 construct: NIH/3T3 FGFR3 V555M-TACC3 CTG; other: 72-hr incubation, CellTiter Glo; fused on or other part: C-terminal part of TACC3 (coiled-coil) fused behind the FGFR3 kinase domain; Q9Y6A5 (Transforming acidic coiled-coil-containing protein 3)
T3 sequence (P22607 whole entry V555M, the tested form may be a part): as the sequence (P22607 whole entry, change not shown, the tested form may be a part) above, with V555M counted along it
Description: NIH/3T3 FGFR3 V555M-TACC3 Cell Proliferation Assay
as §1, with “V555M-TACC3” for “WT-TACC3”

[4] = biological target: T4, human FGFR3 wild type enzyme (cytoplasmic domain) (Homo sapiens, UniProt P22607); assay: FGFR3 wild type mobility shift assay (enzymatic assay); type: biochemical; conditions: 75 μM ATP, 50 minutes at 30° C.; read-out: FGFR3 wild type Caliper
T4 construct: human FGFR3 wild type enzyme (cytoplasmic domain, from Cama Biosciences); purchased Cama Biosciences (so in the source)
T4 sequence (P22607 397-806 limits assumed): as the sequence (P22607 397-806 V555M limits assumed) above, with M159V counted along it
Description: FGFR3 Wild Type Mobility Shift Assay (Enzymatic Assay)
as §2, with “FGFR3 wild type” for “FGFR3 V555M”, “(cytoplasmic domain,” for “(cytoplasmic domain carrying V555M mutation,”, “with 75” for “with 30”, “for 50” for “for 45”

GI50 [1]: 0.85 nM
IC50 [2]: 0.23 nM
GI50 [3]: 1.24 nM
IC50 [4]: 0.31 nM
SMILES: C[C@H](Nc1c(-c2nc3cnc(N4CCOCC4)cc3[nH]2)c(=O)[nH]c2ccsc12)c1ncccn1 [Compound 2, (S)-6-(6-Morpholino-1H-imidazo[4,5-c]pyridin-2-yl)-7-((1-(pyrimidin-2-yl)ethyl)amino)thieno[3,2-b]pyridin-5(4H)-one]

— US12398155B2, “Thienopyridinone compounds” (Janssen Pharmaceutica NV, priority 2019, dated 2025)
